Experimental data published in ChEMBL document CHEMBL3112426, “Discovery of a new binding site on human choline kinase α1: design, synthesis, crystallographic studies, and biological evaluation of asymmetrical bispyridinium derivatives” (J Med Chem, 2014).
Active and inactive are the calls of the source. The rule behind the calls is not given here.

Tests used:
[1] = system: HeLa; assay: Cell cycle arrest in human HeLa cells assessed as accumulation at G2/M phase at 10 uM after 24 hrs by FACS flow cytometric analysis (reference value: 3.9 +/- 0.10%); assay type: functional
[2] = system: HeLa; assay: Cell cycle arrest in human HeLa cells assessed as accumulation at G0/G1 phase at 10 uM after 24 hrs by FACS flow cytometric analysis (reference value: 69.9 +/- 2.41%); assay type: functional
[3] = target: Choline kinase alpha (Homo sapiens, UniProt P35790); assay: Binding affinity to human CK-alpha1 by tryptophan fluorescence spectroscopic analysis
[4] = system: HeLa; assay: Antiproliferative activity against human HeLa cells after 48 hrs by MTT assay; assay type: functional, cell-based
[5] = Inhibition of choline kinase in human HepG2 cells assessed as incorporation of [14C] from [methyl-14C]choline into phosphocholine after 20 mins by liquid scintillation counting analysis; assay type: cell-based
[6] = system: HeLa; assay: Induction of apoptosis in human HeLa cells at 10 uM after 24 hrs by annexin V-FITC/propidium iodide staining-based FACS flow cytometric analysis; assay type: functional, cell-based
[7] = system: HeLa; assay: Cell cycle arrest in human HeLa cells assessed as accumulation at S phase at 10 uM after 24 hrs by FACS flow cytometric analysis (reference value: 25 +/- 2.53%); assay type: functional
[8] = organism: Homo sapiens; assay: Selectivity ratio of Kd for human CK-beta to Kd for human CK-alpha1
[9] = target: Choline/ethanolamine kinase (Homo sapiens, UniProt Q9Y259); assay: Binding affinity to human CK-beta by tryptophan fluorescence spectroscopic analysis
[10] = system: HeLa; assay: Induction of apoptosis in human HeLa cells assessed as upregulation of caspase-3 protein expression after 12 to 48 hrs by Western blot analysis; assay type: functional, cell-based
[11] = system: HeLa; assay: Induction of apoptosis in human HeLa cells at 10 uM after 24 hrs by annexin V-FITC/propidium iodide staining-based FACS flow cytometric analysis (reference value: 14.8%); assay type: functional

Choline kinase alpha, sequence (P35790 whole entry): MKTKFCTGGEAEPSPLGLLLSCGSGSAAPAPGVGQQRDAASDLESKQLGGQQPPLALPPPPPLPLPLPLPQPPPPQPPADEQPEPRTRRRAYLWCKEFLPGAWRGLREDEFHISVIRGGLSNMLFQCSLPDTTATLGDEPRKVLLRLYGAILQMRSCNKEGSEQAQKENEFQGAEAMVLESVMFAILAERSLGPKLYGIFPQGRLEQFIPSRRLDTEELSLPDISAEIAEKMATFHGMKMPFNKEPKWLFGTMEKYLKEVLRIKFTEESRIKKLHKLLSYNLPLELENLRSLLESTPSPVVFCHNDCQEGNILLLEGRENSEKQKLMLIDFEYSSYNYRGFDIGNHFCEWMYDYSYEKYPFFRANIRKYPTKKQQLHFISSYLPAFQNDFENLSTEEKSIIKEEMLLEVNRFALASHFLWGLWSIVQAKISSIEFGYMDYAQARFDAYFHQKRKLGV
Choline/ethanolamine kinase, sequence (Q9Y259 whole entry): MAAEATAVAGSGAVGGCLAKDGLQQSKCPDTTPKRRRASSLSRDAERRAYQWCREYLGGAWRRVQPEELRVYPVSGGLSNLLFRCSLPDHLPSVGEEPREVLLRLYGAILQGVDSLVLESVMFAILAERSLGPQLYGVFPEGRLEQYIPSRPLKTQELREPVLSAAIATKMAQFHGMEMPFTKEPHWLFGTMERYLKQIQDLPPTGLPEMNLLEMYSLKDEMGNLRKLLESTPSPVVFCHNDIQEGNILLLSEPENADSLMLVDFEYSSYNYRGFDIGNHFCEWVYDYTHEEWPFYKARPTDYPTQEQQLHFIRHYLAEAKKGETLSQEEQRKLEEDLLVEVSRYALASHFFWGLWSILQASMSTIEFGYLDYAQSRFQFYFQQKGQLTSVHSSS

CN(C)c1cc[n+](Cc2ccc(CCc3ccc(C[n+]4ccc(N5CCCC5)cc4)cc3)cc2)cc1.[Br-].[Br-]
Activity [1]: 2.6%
Activity [2]: 72.5%
Kd [3]: 400 nM
IC50 [4]: 8600 nM
IC50 [5]: 1200 nM
Activity [6]: Active
Activity [7]: 24.9%

CN(C)c1cc[n+](Cc2ccc(-c3ccc(C[n+]4ccc(N(C)c5ccc(Cl)cc5)cc4)cc3)cc2)cc1
Kd [3]: 620 nM
IC50 [4]: 11700 nM
IC50 [5]: 1500 nM

CN(c1ccc(Cl)cc1)c1cc[n+](Cc2ccc(C[n+]3ccc(N4CCCC4)cc3)cc2)cc1
IC50 [4]: 48100 nM
IC50 [5]: 600 nM

CN(C)c1cc[n+](Cc2ccc(CCCCc3ccc(C[n+]4ccc(N(C)c5ccc(Cl)cc5)cc4)cc3)cc2)cc1.[Br-].[Br-]
Activity [1]: 0.9%
Activity [2]: 85.9%
IC50 [4]: 1900 nM
IC50 [5]: 1200 nM
Selectivity ratio [8]: 200
Kd [9]: 22000 nM
Activity [10]: Dose-dependent effect
Activity [6]: Active
Activity [11]: 55.6%
Activity [7]: 12.8%

CN(c1ccc(Cl)cc1)c1cc[n+](Cc2ccc(-c3ccc(C[n+]4ccc(N5CCCC5)cc4)cc3)cc2)cc1.[Br-].[Br-]
Activity [1]: 3.1%
Activity [2]: 73.1%
IC50 [4]: 4100 nM
IC50 [5]: 2200 nM
Activity [6]: Active
Activity [7]: 23.8%

CN(C)c1cc[n+](Cc2ccc(C[n+]3ccc(N(C)c4ccc(Cl)cc4)cc3)cc2)cc1
IC50 [4]: 24600 nM
IC50 [5]: 900 nM

CN(C)c1cc[n+](Cc2ccc(-c3ccc(C[n+]4ccc(N5CCCC5)cc4)cc3)cc2)cc1.[Br-].[Br-]
Activity [1]: 2.7%
Activity [2]: 72.8%
IC50 [4]: 3700 nM
IC50 [5]: 800 nM
Activity [6]: Active
Activity [7]: 24.5%

CN(C)c1cc[n+](Cc2ccc(CCCCc3ccc(C[n+]4ccc(N5CCCC5)cc4)cc3)cc2)cc1.[Br-].[Br-]
Activity [1]: 2.8%
Activity [2]: 77.8%
IC50 [4]: 2100 nM
IC50 [5]: 900 nM
Activity [6]: Active
Activity [7]: 19.2%

CN(C)c1cc[n+](Cc2ccc(C[n+]3ccc(N4CCCC4)cc3)cc2)cc1
IC50 [4]: 15900 nM
IC50 [5]: 8000 nM

CN(C)c1cc[n+](Cc2ccc(CCc3ccc(C[n+]4ccc(N(C)c5ccc(Cl)cc5)cc4)cc3)cc2)cc1.[Br-].[Br-]
Activity [1]: 1.8%
Activity [2]: 83.3%
IC50 [4]: 1300 nM
IC50 [5]: 700 nM
Activity [6]: Active
Activity [7]: 14.9%

CC(=O)O[C@H]1C(=O)[C@@]2(C)[C@H]([C@H](OC(=O)c3ccccc3)[C@]3(O)C[C@H](OC(=O)[C@H](O)[C@@H](NC(=O)c4ccccc4)c4ccccc4)C(C)=C1C3(C)C)[C@]1(OC(C)=O)CO[C@@H]1C[C@@H]2O [PACLITAXEL]
IC50 [4]: 8 ng/mL
Activity [10]: Dose-dependent effect

CN(c1ccc(Cl)cc1)c1cc[n+](Cc2ccc(CCCCc3ccc(C[n+]4ccc(N5CCCC5)cc4)cc3)cc2)cc1.[Br-].[Br-]
Activity [1]: 1.3%
Activity [2]: 83.3%
IC50 [4]: 2100 nM
IC50 [5]: 1500 nM
Activity [6]: Active
Activity [7]: 15.4%

CN(c1ccc(Cl)cc1)c1cc[n+](Cc2ccc(CCc3ccc(C[n+]4ccc(N5CCCC5)cc4)cc3)cc2)cc1.[Br-].[Br-]
Activity [1]: 2.2%
Activity [2]: 77%
IC50 [4]: 9400 nM
IC50 [5]: 2500 nM
Activity [6]: Active
Activity [7]: 20.8%
